Results published in PubChem BioAssay AID248 (DTP/NCI, 2004).
“And” between values parts separate entries of the source, which are not always exact repeats. Equal entries are not always repeated. Toxic doses and inconclusive results are not listed.

System: L1210 leukemia ip in BDF1 mice, survival T/C
Assay: NCI In Vivo Anticancer Drug Screen. Data for tumor model L1210 Leukemia (intraperitoneal) in B6D2F1 (BDF1) mice
Settings: endpoint: mean survival time, higher = longer survival
In short: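 Ratio derived from survival: compound-dosed mice over vehicle-dosed mice, all bearing a transplantable tumor.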

[1] = dose: 100.0 mg/kg/injection, schedule: Q01DX009 (ip), vehicle: saline
[2] = dose: 200.0 mg/kg/injection, schedule: Q01DX009 (ip), vehicle: saline
[3] = dose: 400.0 mg/kg/injection, schedule: Q01DX009 (ip), vehicle: saline
[4] = dose: 50.0 mg/kg/injection, schedule: Q04DX003 (ip), vehicle: Klucel (hydroxypropylcellulose) (HPC)
[5] = dose: 100.0 mg/kg/injection, schedule: Q01DX009 (ip), vehicle: Klucel (hydroxypropylcellulose) (HPC)
[6] = dose: 100.0 mg/kg/injection, schedule: Q04DX003 (ip), vehicle: Klucel (hydroxypropylcellulose) (HPC)
[7] = dose: 200.0 mg/kg/injection, schedule: Q01DX009 (ip), vehicle: Klucel (hydroxypropylcellulose) (HPC)
[8] = dose: 200.0 mg/kg/injection, schedule: Q04DX003 (ip), vehicle: Klucel (hydroxypropylcellulose) (HPC)
[9] = dose: 400.0 mg/kg/injection, schedule: Q01DX009 (ip), vehicle: Klucel (hydroxypropylcellulose) (HPC)
[10] = dose: 400.0 mg/kg/injection, schedule: Q04DX003 (ip), vehicle: Klucel (hydroxypropylcellulose) (HPC)
[11] = dose: 100.0 mg/kg/injection, schedule: Q01DX001 (ip), vehicle: Klucel (hydroxypropylcellulose) (HPC)

## CC(C)SC=O
dose: 50.0 mg/kg/injection, schedule: Q01DX009 (ip), vehicle: saline
  T/C: 94 % of control
[1]
  T/C: 93 % of control
dose: 100.0 mg/kg/injection, schedule: Q04DX003 (ip), vehicle: saline
  T/C: 100 % of control
[2]
  T/C: 93 % of control
dose: 200.0 mg/kg/injection, schedule: Q04DX003 (ip), vehicle: saline
  T/C: 105 % of control
[3]
  T/C: 89 % of control
dose: 400.0 mg/kg/injection, schedule: Q04DX003 (ip), vehicle: saline
  T/C: 100 % of control

## Cc1cc(/C=N\N=C(N)N)c(C)n1-c1ccccc1
dose: 15.0 mg/kg/injection, schedule: Q01DX Z (ip), vehicle: carboxymethylcellulose (CMC)
  T/C: 92 % of control
dose: 30.0 mg/kg/injection, schedule: Q01DX Z (ip), vehicle: carboxymethylcellulose (CMC)
  T/C: 95 % of control
dose: 60.0 mg/kg/injection, schedule: Q01DX Z (ip), vehicle: carboxymethylcellulose (CMC)
  T/C: 89 % of control
dose: 60.0 mg/kg/injection, schedule: Q01DX Z (oral), vehicle: carboxymethylcellulose (CMC)
  T/C: 106 % of control
dose: 120.0 mg/kg/injection, schedule: Q01DX Z (ip), vehicle: carboxymethylcellulose (CMC)
  T/C: 97 % of control
dose: 120.0 mg/kg/injection, schedule: Q01DX Z (oral), vehicle: carboxymethylcellulose (CMC)
  T/C: 101 % of control
dose: 240.0 mg/kg/injection, schedule: Q01DX Z (oral), vehicle: carboxymethylcellulose (CMC)
  T/C: 95 % of control and 100 % of control
dose: 480.0 mg/kg/injection, schedule: Q01DX Z (oral), vehicle: carboxymethylcellulose (CMC)
  T/C: 95 % of control and 102 % of control
dose: 960.0 mg/kg/injection, schedule: Q01DX Z (oral), vehicle: carboxymethylcellulose (CMC)
  T/C: 103 % of control
dose: 1920.0 mg/kg/injection, schedule: Q01DX Z (oral), vehicle: carboxymethylcellulose (CMC)
  T/C: 107 % of control

## COc1cc2c(cc1OC)C(C)=[N+](C)CC2
dose: 12.5 mg/kg/injection, schedule: Q04DX003 (ip), vehicle: Klucel (hydroxypropylcellulose) (HPC)
  T/C: 101 % of control
dose: 25.0 mg/kg/injection, schedule: Q04DX003 (ip), vehicle: Klucel (hydroxypropylcellulose) (HPC)
  T/C: 103 % of control
[4]
  T/C: 106 % of control

## O=CC(C(O)C(O)C(O)CO)N1CCN(C(C=O)C(O)C(O)C(O)CO)CC1 (configuration not stated)
dose: 50.0 mg/kg/injection, schedule: Q04DX002 (ip), vehicle: saline
  T/C: 95 % of control
dose: 100.0 mg/kg/injection, schedule: Q04DX002 (ip), vehicle: saline
  T/C: 107 % of control
dose: 200.0 mg/kg/injection, schedule: Q04DX002 (ip), vehicle: saline
  T/C: 107 % of control

## COc1cc(C(C)=O)cc(OC)c1OC
dose: 100.0 mg/kg/injection, schedule: Q04DX003 (ip), vehicle: saline with Tween-80
  T/C: 102 % of control
dose: 200.0 mg/kg/injection, schedule: Q04DX003 (ip), vehicle: saline with Tween-80
  T/C: 96 % of control
dose: 400.0 mg/kg/injection, schedule: Q04DX003 (ip), vehicle: saline with Tween-80
  T/C: 98 % of control

## COC(=O)Nc1ccc(N)c(NC(=O)OC)n1
[5]
  T/C: 92 % of control
[6]
  T/C: 106 % of control
[7]
  T/C: 89 % of control
[8]
  T/C: 99 % of control
[9]
  T/C: 87 % of control
[10]
  T/C: 100 % of control

## Cc1ccc(C(=O)/C=C2/SS/C(=C/C(=O)c3ccc(C)cc3)S2)cc1
[4]
  T/C: 100 % of control
[11]
  T/C: 92 % of control
[6]
  T/C: 97 % of control
dose: 200.0 mg/kg/injection, schedule: Q01DX001 (ip), vehicle: Klucel (hydroxypropylcellulose) (HPC)
  T/C: 95 % of control
[8]
  T/C: 106 % of control
dose: 400.0 mg/kg/injection, schedule: Q01DX001 (ip), vehicle: Klucel (hydroxypropylcellulose) (HPC)
  T/C: 98 % of control
[10]
  T/C: 110 % of control

## CCOc1ccc(NC(C)=O)cc1
[6]
  T/C: 96 % of control
[8]
  T/C: 104 % of control
[10]
  T/C: 115 % of control

## CCC(C)(C)c1cccc2ccccc12
[5]
  T/C: 96 % of control
[6]
  T/C: 102 % of control
[7]
  T/C: 100 % of control
[8]
  T/C: 106 % of control
[9]
  T/C: 86 % of control
[10]
  T/C: 101 % of control

## C/C=C(/Cl)c1c(C)cc(C)c(CC(=O)O)c1C
[6]
  T/C: 92 % of control
dose: 130.0 mg/kg/injection, schedule: Q01DX009 (ip), vehicle: Klucel (hydroxypropylcellulose) (HPC)
  T/C: 110 % of control
[7]
  T/C: 114 % of control
[8]
  T/C: 90 % of control
[10]
  T/C: 105 % of control

## O=NN(CCCl)C(=O)NCc1ccc(-c2ccc(CNC(=O)N(CCCl)N=O)cc2)cc1
dose: 177.0 mg/kg/injection, schedule: Q01DX001 (ip), vehicle: other
  T/C: 156 % of control and 188 % of control
dose: 266.0 mg/kg/injection, schedule: Q01DX001 (ip), vehicle: other
  T/C: 180 % of control
dose: 400.0 mg/kg/injection, schedule: Q01DX001 (ip), vehicle: other
  T/C: 194 % of control
dose: 400.0 mg/kg/injection, schedule: Q01DX009 (ip), vehicle: carboxymethylcellulose (CMC)
  T/C: 159 % of control and 274 % of control
dose: 600.0 mg/kg/injection, schedule: Q01DX001 (ip), vehicle: other
  T/C: 264 % of control
dose: 600.0 mg/kg/injection, schedule: Q01DX009 (ip), vehicle: carboxymethylcellulose (CMC)
  T/C: 261 % of control

## CCCCCCCCCC(=O)Nc1ccc(C)cc1C
dose: 100.0 mg/kg/injection, schedule: Q04DX002 (ip), vehicle: Klucel (hydroxypropylcellulose) (HPC)
  T/C: 97 % of control
dose: 200.0 mg/kg/injection, schedule: Q04DX002 (ip), vehicle: Klucel (hydroxypropylcellulose) (HPC)
  T/C: 101 % of control
dose: 400.0 mg/kg/injection, schedule: Q04DX002 (ip), vehicle: Klucel (hydroxypropylcellulose) (HPC)
  T/C: 90 % of control

## CSC(C#N)S(C)(=O)=O (configuration not stated)
dose: 25.0 mg/kg/injection, schedule: Q01DX001 (ip), vehicle: Klucel (hydroxypropylcellulose) (HPC)
  T/C: 109 % of control
dose: 50.0 mg/kg/injection, schedule: Q01DX001 (ip), vehicle: Klucel (hydroxypropylcellulose) (HPC)
  T/C: 100 % of control
[11]
  T/C: 103 % of control and 108 % of control

## Oc1c(CN2CCCC2)cc(Nc2cc(/C=C/c3ccc(Cl)cc3)nc(/C=C\c3ccc(Cl)cc3)n2)cc1CN1CCCC1
dose: 1.0 mg/kg/injection, schedule: Q01DX009 (ip), vehicle: Klucel (hydroxypropylcellulose) (HPC)
  T/C: 110 % of control
dose: 3.0 mg/kg/injection, schedule: Q01DX009 (ip), vehicle: Klucel (hydroxypropylcellulose) (HPC)
  T/C: 98 % of control
dose: 6.0 mg/kg/injection, schedule: Q01DX009 (ip), vehicle: Klucel (hydroxypropylcellulose) (HPC)
  T/C: 101 % of control
dose: 12.0 mg/kg/injection, schedule: Q01DX009 (ip), vehicle: Klucel (hydroxypropylcellulose) (HPC)
  T/C: 91 % of control
dose: 12.0 mg/kg/injection, schedule: Q04DX003 (ip), vehicle: saline
  T/C: 88 % of control
dose: 50.0 mg/kg/injection, schedule: Q04DX003 (ip), vehicle: saline
  T/C: 88 % of control

## Cc1cc(C)c2c(C#N)cn(-c3ccc(Cl)cc3)c2n1
dose: 100.0 mg/kg/injection, schedule: Q01DX001 (ip), vehicle: saline
  T/C: 87 % of control
dose: 200.0 mg/kg/injection, schedule: Q01DX001 (ip), vehicle: saline
  T/C: 97 % of control
dose: 400.0 mg/kg/injection, schedule: Q01DX001 (ip), vehicle: saline
  T/C: 91 % of control

## CC(C)(C)C#C/C(=N\Nc1ccc([N+](=O)[O-])cc1[N+](=O)[O-])c1ccccc1
dose: 50.0 mg/kg/injection, schedule: Q04DX002 (ip), vehicle: saline with Tween-80
  T/C: 89 % of control
dose: 100.0 mg/kg/injection, schedule: Q04DX002 (ip), vehicle: saline with Tween-80
  T/C: 96 % of control
dose: 400.0 mg/kg/injection, schedule: Q04DX002 (ip), vehicle: saline with Tween-80
  T/C: 86 % of control

## C#CC(OC(=O)NC(CCSC)C(=O)OC)(c1ccccc1)c1ccccc1 (configuration not stated)
dose: 100.0 mg/kg/injection, schedule: Q01DX001 (ip), vehicle: saline with Tween-80
  T/C: 99 % of control
dose: 200.0 mg/kg/injection, schedule: Q01DX001 (ip), vehicle: saline with Tween-80
  T/C: 99 % of control

## Cc1ccc(S(=O)(=O)Nc2ccc([N+](=O)[O-])cc2OS(=O)(=O)c2ccc(C)cc2)cc1
[1]
  T/C: 97 % of control
[2]
  T/C: 101 % of control
[3]
  T/C: 95 % of control
